# Where “and” joins values, the source holds several entries; their conditions need not be identical. Equal values may be shown once. Read-outs that look alike come from different tables or passages of the source.
# Columns and labels:
# wheat leaves = conditions: in vivo
# [1] = system: Arabidopsis seed germination; type: in vivo
# F. graminearum [2] = type: in vivo
# F. graminearum [3] = conditions: in vivo
# F. graminearum [4] = type: in vivo; remark: listed apart in the source
# F. graminearum [5] = conditions: in vivo; remark: listed apart in the source
compound,measurement,setting,value
"CC1=C[C@H]2O[C@@H]3[C@H](O)C[C@](C)([C@@]2(CO)[C@H](O)C1=O)[C@]31CO1 [DON, deoxynivalenol]",cell death about the inoculation point (trypan blue),wheat leaves,extensive cell death
same,size of lesions (DON-induced cell death),wheat leaves,0.127 cm^2 and 0.066 cm^2
same,effect on seed germination,[1]; FIG. 6,inhibits seed germination
"C=C1C[C@]23C[C@@]1(O)CC[C@H]2[C@@]12C=C[C@H](O)[C@@](C)(C(=O)O1)[C@H]2[C@@H]3C(=O)O [GA, Gibberellic Acid]",effect on DON inhibition of seed germination,[1]; FIG. 7,can reverse the inhibitory effect of DON
C=C [ethylene],lesion size,"F. graminearum [2]; barley (Golden promise) leaves, ethephon 50 mM or silver thiosulphate 150 μm in agar",did not markedly alter
same,conidial production,"F. graminearum [2]; barley leaves, 7 days, ET P=0.005, reduced ET perception (silver) P=0.043",significantly greater
same,conidial production,F. graminearum [3],enhanced susceptibility
same,disease severity,F. graminearum [3],enhanced susceptibility
same,lesion size,"F. graminearum [4]; wheat (Hobbit 'sib') leaves, ethephon 50 mM or silver thiosulphate 150 μm in agar",did not markedly alter
same,conidial production,"F. graminearum [4]; wheat leaves, 7 days, ET P=0.05, reduced ET perception (silver) P=0.003",significantly greater
silver ions,conidial production,F. graminearum [2]; in vivo,significantly reduced
same,lesion size,F. graminearum [2]; in vivo,did not markedly alter
same,conidial production,F. graminearum [4]; in vivo,significantly reduced
same,lesion size,F. graminearum [4]; in vivo,did not markedly alter
same,AUDPC versus water treated heads,F. graminearum [5],significantly lower
same,disease development reduced versus water,F. graminearum [5],12-88%
silver thiosulphate,conidial production,F. graminearum [3],enhanced resistance
same,disease severity,F. graminearum [3],enhanced resistance

# Reference: US20110190379A1 (priority 2008, published 2011)
